In US10174016B2 (BAYER AKTIENGESELLSCHAFT, priority 2014, dated 2019):
Like-named read-outs stand apart in the source and are kept apart here.

How the values were obtained:
human P2X2/3 receptor = human P2X2/3 receptor (Homo sapiens (Human), UniProt P56373+Q9UBL9); assay: Intracellular calcium measurement (FLIPR, Fluo-4) of antagonist activity at human P2X2/3 receptors; type: cell-based; conditions: human P2X2/3, FLIPR calcium assay, agonist α,β-Me-ATP; read-out: hP2X2/3 IC50
Experimental: (§1) Intracellular Calcium Measurement to Assess Antagonist Activity at Human P2X3 and Human P2X2/3 Receptors
(§2) A fluorescent imaging plate reader (FLEX/FLIPR station; Molecular Devices) was used to monitor intracellular calcium levels using the calcium-chelating dye Fluo-4 (Molecular Probes). […] Cells expressing purinergic receptors P2X3 (human) or P2X2/3 (human) were plated at a density of 15,000 cells/well in collagen-coated 384-well plates approximately 20 hours before beginning the assay. […] The test compound was added in a volume of 5 μl and allowed to incubate for 30 min at 37° C. The final assay DMSO concentration is 1%. The agonist, α,β-Me-ATP, was added in a volume of 20 μl at a concentration representing the EC80 value. The fluorescence was measured for an interval of 90 sec at 2 sec intervals and analyzed based on the increase in peak relative fluorescence units (RFU) compared to the basal fluorescence. Peak fluorescence was used to determine the response to agonist obtained at each concentration of test compound by the following equation: % Response=100*(RFU(test compound)−RFU(control)/RFU(DMSO)−RFU(control))
(§3) The Examples were tested in triplicates per plate and mean values were plotted in Excel XLFit to determine IC50 values at the human P2X3 and human P2X2/3 receptors, percentage of maximal inhibition and the Hill coefficients.

human P2X3 receptor = human P2X3 receptor (Homo sapiens (Human), UniProt P56373); assay: Intracellular calcium measurement (FLIPR, Fluo-4) of antagonist activity at human P2X3 receptors; type: cell-based; conditions: read-out: hP2X3 IC50
human P2X3 receptor, sequence (P56373 whole entry): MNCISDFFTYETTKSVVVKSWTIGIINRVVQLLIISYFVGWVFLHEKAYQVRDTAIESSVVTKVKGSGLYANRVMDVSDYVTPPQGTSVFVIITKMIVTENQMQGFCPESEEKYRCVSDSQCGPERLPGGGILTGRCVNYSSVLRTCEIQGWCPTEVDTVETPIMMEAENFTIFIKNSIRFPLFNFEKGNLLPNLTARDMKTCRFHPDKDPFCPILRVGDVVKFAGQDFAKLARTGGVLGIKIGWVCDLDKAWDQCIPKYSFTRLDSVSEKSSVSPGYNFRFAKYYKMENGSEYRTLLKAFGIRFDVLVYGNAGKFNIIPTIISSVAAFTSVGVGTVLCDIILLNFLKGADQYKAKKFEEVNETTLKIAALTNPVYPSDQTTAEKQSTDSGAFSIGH
Experimental: as §1, §2, §3

[1] = human P2X3, FLIPR calcium assay, agonist α,β-Me-ATP

human P2X2/3 receptor, sequence (P56373 whole entry): as above
human P2X2/3 receptor, sequence (Q9UBL9 whole entry): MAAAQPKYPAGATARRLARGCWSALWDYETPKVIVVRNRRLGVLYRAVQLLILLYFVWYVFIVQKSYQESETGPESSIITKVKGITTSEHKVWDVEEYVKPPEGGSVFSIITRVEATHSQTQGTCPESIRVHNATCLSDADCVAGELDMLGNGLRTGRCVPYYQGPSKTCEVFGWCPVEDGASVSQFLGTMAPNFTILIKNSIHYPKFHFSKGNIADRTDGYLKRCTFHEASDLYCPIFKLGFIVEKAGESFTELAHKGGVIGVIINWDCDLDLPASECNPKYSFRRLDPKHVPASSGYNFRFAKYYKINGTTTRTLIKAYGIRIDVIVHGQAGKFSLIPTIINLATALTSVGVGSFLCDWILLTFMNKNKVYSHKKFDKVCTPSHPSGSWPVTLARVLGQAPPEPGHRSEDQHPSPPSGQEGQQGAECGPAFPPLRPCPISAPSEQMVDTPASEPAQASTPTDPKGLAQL

Structure (SMILES)	IC50 (human P2X2/3 receptor) [nM]	IC50 (human P2X3 receptor; [1]) [nM]	IC50 (human P2X3 receptor) [nM]
Cc1cnc(-c2cc(OCC3CC3)cc(C(=O)NC(C)c3ncc(F)cc3Cl)c2)s1 (racemic) [Example 5, N-[1-(3-Chloro-5-fluoropyridin-2-yl)ethyl]-3-(cyclopropylmethoxy)-5-(5-methyl-1,3-thiazol-2-yl)benzamide]	346	16	
Cc1cnc(-c2cc(OCC3CC3)cc(C(=O)NC(C)c3ncc(Cl)cc3F)c2)s1 (racemic) [Example 6, N-[1-(5-Chloro-3-fluoropyridin-2-yl)ethyl]-3-(cyclopropylmethoxy)-5-(5-methyl-1,3-thiazol-2-yl)benzamide]	38	4	
Cc1cnc(-c2cc(OC3COC3)cc(C(=O)NC(C)c3nnc(C(F)(F)F)s3)c2)s1 (single isomer, unassigned) [Example 193, 3-(5-Methyl-1,3-thiazol-2-yl)-5-(oxetan-3-yloxy)-N-{1-[5-(trifluoromethyl)-1,3,4-thiadiazol-2-yl]ethyl}benzamide]	≥ 10000	2710	
Cc1cnc(-c2cc(OC3COC3)cc(C(=O)NC(C)c3nnc(C(F)(F)F)s3)c2)s1 (single isomer, unassigned) [Example 194, 3-(5-Methyl-1,3-thiazol-2-yl)-5-(oxetan-3-yloxy)-N-{1-[5-(trifluoromethyl)-1,3,4-thiadiazol-2-yl]ethyl}benzamide]	579	46	
Cc1cnc(-c2cc(OC3CCNC(C(F)(F)F)C3)cc(C(=O)N[C@H](C)c3cnc(C(F)(F)F)nc3)c2)s1 (single isomer, unassigned) [Example 207]	87	5	
Cc1cnc(-c2cc(OC3CCNC(C(F)(F)F)C3)cc(C(=O)N[C@H](C)c3cnc(C(F)(F)F)nc3)c2)s1 (single isomer, unassigned) [Example 208]	89	2	
Cc1cnc(-c2cc(OC[C@]3(F)CCCNC3)cc(C(=O)NC(C)c3cnc(C(F)(F)F)nc3)c2)s1 (single isomer, unassigned) [Example 355]	956	9	
Cc1cnc(-c2cc(OCC3CCOC3)cc(C(=O)NC(C)c3ncc(F)cc3Cl)c2)s1 (stereo in doubt) [Example 69, N-[1-(3-Chloro-5-fluoropyridin-2-yl)ethyl]-3-(5-methyl-1,3-thiazol-2-yl)-5-[(3R)-tetrahydrofuran-3-ylmethoxy]benzamide]	937	15	
Cc1cnc(-c2cc(OCC3CN(C(C)C)CCO3)cc(C(=O)N[C@H](C)c3cnc(C(F)(F)F)nc3)c2)s1 (stereo in doubt) [Example 382, 3-(5-methyl-1,3-thiazol-2-yl)-5-{[(2R)-4-(propan-2-yl)morpholin-2-yl]methoxy}-N-{(1R)-1-[2-(trifluoromethyl)pyrimidin-5-yl]ethyl}benzamide]	432	13	
Cc1ccc(CNC(=O)c2cc(OCC3CC3)cc(-c3ncc(C)s3)c2)nn1 [Example 2, 3-(Cyclopropylmethoxy)-N-[(6-methylpyridazin-3-yl)methyl]-5-(5-methyl-1,3-thiazol-2-yl)benzamide]	251	19	
Cc1cnc(CNC(=O)c2cc(OCC3CC3)cc(-c3ncc(C)s3)c2)cn1 [Example 3, 3-(Cyclopropylmethoxy)-N-[(5-methylpyrazin-2-yl)methyl]-5-(5-methyl-1,3-thiazol-2-yl)benzamide]	1110	26	
Cc1cnc([C@@H](C)NC(=O)c2cc(OCC3CC3)cc(-c3ncc(C)s3)c2)cn1 [Example 4, 3-(Cyclopropylmethoxy)-N-[(1R)-1-(5-methylpyrazin-2-yl)ethyl]-5-(5-methyl-1,3-thiazol-2-yl)benzamide]	98	9	
Cc1cnc(-c2cc(OCC3CC3)cc(C(=O)N[C@H](C)c3nnc(C)s3)c2)s1 [Example 7, 3-(Cyclopropylmethoxy)-N-[(1R)-1-(5-methyl-1,3,4-thiadiazol-2-yl)ethyl]-5-(5-methyl-1,3-thiazol-2-yl)benzamide]	106	8	
Cc1ccc([C@@H](C)NC(=O)c2cc(OCC3CC3)cc(-c3ncc(C)s3)c2)nn1 [Example 8, 3-(Cyclopropylmethoxy)-N-[(1R)-1-(6-methylpyridazin-3-yl)ethyl]-5-(5-methyl-1,3-thiazol-2-yl)benzamide]	90	3	
Cc1cnc(-c2cc(OCC3CC3)cc(C(=O)N[C@H](C)c3ccc(C(F)(F)F)nn3)c2)s1 [Example 9, 3-(Cyclopropylmethoxy)-5-(5-methyl-1,3-thiazol-2-yl)-N-{(1R)-1-[6-(trifluoromethyl)pyridazin-3-yl]ethyl}benzamide]	145	7	
Cc1ncc([C@@H](C)NC(=O)c2cc(OCC3CC3)cc(-c3ncc(C)s3)c2)cn1 [Example 10, 3-(Cyclopropylmethoxy)-N-[(1R)-1-(2-methylpyrimidin-5-yl)ethyl]-5-(5-methyl-1,3-thiazol-2-yl)benzamide]	185	7	
Cc1cnc(CNC(=O)c2cc(O[C@@H]3CCOC3)cc(-c3ncc(C)s3)c2)cn1 [Example 12, N-[(5-methylpyrazin-2-yl)methyl]-3-(5-methyl-1,3-thiazol-2-yl)-5-[(3R)-tetrahydrofuran-3-yloxy]benzamide]	≥ 10000		283
C#CCOc1cc(C(=O)NCc2ncc(Cl)cc2F)cc(-c2ncc(C)s2)c1 [Example 32, N-[(5-Chloro-3-fluoropyridin-2-yl)methyl]-3-(5-methyl-1,3-thiazol-2-yl)-5-(prop-2-yn-1-yloxy)benzamide]		24	
C#CCOc1cc(C(=O)N[C@H](C)c2ccc(C)nn2)cc(-c2ncc(C)s2)c1 [Example 37, N-[(1R)-1-(6-Methylpyridazin-3-yl)ethyl]-3-(5-methyl-1,3-thiazol-2-yl)-5-(prop-2-yn-1-yloxy)benzamide]	1180		
Cc1ccc([C@@H](C)NC(=O)c2cc(OC3COC3)cc(-c3ncc(C)s3)c2)cn1 [Example 51, N-[(1R)-1-(6-methylpyridin-3-yl)ethyl]-3-(5-methyl-1,3-thiazol-2-yl)-5-(oxetan-3-yloxy)benzamide]	1390		
Cc1ccc(CNC(=O)c2cc(OC[C@@H]3CCCO3)cc(-c3ncc(C)s3)c2)nn1 [Example 54, N-[(6-Methylpyridazin-3-yl)methyl]-3-(5-methyl-1,3-thiazol-2-yl)-5-[(2S)-tetrahydrofuran-2-ylmethoxy]benzamide]	≥ 10000		
Cc1cnc(-c2cc(OC3CCOCC3)cc(C(=O)N[C@H](C)c3ccc(C(F)(F)F)nn3)c2)s1 [Example 89, 3-(5-Methyl-1,3-thiazol-2-yl)-5-(tetrahydro-2H-pyran-4-yloxy)-N-{(1R)-1-[6-(trifluoromethyl)pyridazin-3-yl]ethyl}benzamide]	199		
Cc1cc(Oc2cc(C(=O)N[C@H](C)c3ccc(C(F)(F)F)nn3)cc(-c3ncc(C)s3)c2)ccn1 [Example 105, 3-[(2-Methylpyridin-4-yl)oxy]-5-(5-methyl-1,3-thiazol-2-yl)-N-{(1R)-1-[6-(trifluoromethyl)pyridazin-3-yl]ethyl}benzamide]	39		
Cc1cnc(-c2cc(OC3CCNCC3)cc(C(=O)N[C@H](C)c3cnc(C(F)(F)F)nc3)c2)s1 [Example 138, 3-(5-Methyl-1,3-thiazol-2-yl)-5-(piperidin-4-yloxy)-N-{(1R)-1-[2-(trifluoromethyl)pyrimidin-5-yl]ethyl}benzamide]	559		
Cc1cnc(-c2cc(OC3CCOCC3)cc(C(=O)N[C@H](C)c3cnc(C(F)F)nc3)c2)s1 [Example 154, N-{(1R)-1-[2-(difluoromethyl)pyrimidin-5-yl]ethyl}-3-(5-methyl-1,3-thiazol-2-yl)-5-(tetrahydro-2H-pyran-4-yloxy)benzamide]	130		
Cc1cnc(-c2cc(OC3(C)COC3)cc(C(=O)N[C@H](C)c3cnc(C(F)(F)F)nc3)c2)s1 [Example 156, 3-[(3-methyloxetan-3-yl)oxy]-5-(5-methyl-1,3-thiazol-2-yl)-N-{(1R)-1-[2-(trifluoromethyl)pyrimidin-5-yl]ethyl}benzamide]	163		
Cc1cnc(-c2cc(OCCn3cncn3)cc(C(=O)N[C@H](C)c3cnc(C(F)(F)F)nc3)c2)s1 [Example 159, 3-(5-methyl-1,3-thiazol-2-yl)-5-[2-(1H-1,2,4-triazol-1-yl)ethoxy]-N-{(1R)-1-[2-(trifluoromethyl)pyrimidin-5-yl]ethyl}benzamide]	1230		
Cc1cnc(-c2cc(OC[C@H]3COCCO3)cc(C(=O)N[C@H](C)c3ccc(C(F)(F)F)nc3)c2)s1 [Example 177, 3-[(2R)-1,4-dioxan-2-ylmethoxy]-5-(5-methyl-1,3-thiazol-2-yl)-N-{(1R)-1-[6-(trifluoromethyl)pyridin-3-yl]ethyl}benzamide]	887		
Cc1cnc(-c2cc(OCC34CNC(CO3)C4)cc(C(=O)N[C@H](C)c3cnc(C(F)(F)F)nc3)c2)s1 (stereo partly drawn) [Example 407, 3-(5-Methyl-1,3-thiazol-2-yl)-5-[2-oxa-5-azabicyclo[2.2.1]hept-1-ylmethoxy]-N-{(1R)-1-[2-(trifluoromethyl)pyrimidin-5-yl]ethyl}benzamide]		15	
